The text below walks through data of patent US11759462B2, “Spirocyclic compounds as tryptophan hydroxylase inhibitors” (priority 2013, dated 2023).

Assay [1] has as its system jejunal mucosal 5-HT in mice (C57 BL6). Nature of the assay: Intestinal 5-HT depletion assay (Example B, single 150 mg/kg oral dose). It counts as in vivo, mouse. Particulars: one day after oral administration of a single 150 mg/kg dose, P-value class (ANOVA). The method, boiled down:
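C57 BL6 mice received one 150 mg/kg oral gavage dose; jejunal mucosa was homogenized in acidic trichloroacetic acid buffer and 5-HT measured by HPLC. Levels normalized to BCA protein, expressed as mean percent reduction versus vehicle ± SEM; ANOVA significance.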

The test system is the same in assay [2]. Nature of the assay: Reduction of mucosal 5-HT concentrations (Example C, repeated oral dosing). As to conditions: P-value class. It counts as in vivo, mouse. The protocol:
The efficacy of the TPH1 inhibitors of the invention was assessed for the ability to decrease intestinal serotonin concentration in mice. Mice (C57 BL6) were administered an oral dose of 10 or 50 mg/kg of the test article in the evening. […] Following an overnight fast, each animal was euthanized by exsanguination under isoflurane anesthesia. Jejunal intestinal mucosa was isolated and homogenized in […] of a buffer containing 0.3M trichloroacetic acid, 0.1M sodium acetate, 10 mM EDTA, 20 mM sodium bisulfate and 50 mM ascorbic acid. Following centrifugation the 5-HT levels in the supernatants were measured by HPLC. The remaining mucosal pellet was solubilized overnight at 37° C. in a 0.1% sodium dodecyl sulfate buffer in 0.1N NaOH followed by determination of protein concentrations using a BCA protein assay (Pierce, Rockford, Ill.). 5-HT levels were normalized to protein and data were expressed as mean percent reduction of mucosal 5-HT levels relative to vehicle control±SEM (percent 5-HT reduction). All animal studies were carried out with protocols approved by the Institutional Animal Care and Use Committee. P-values, indicating statistical significance of the data (ANOVA) are provided in the table: * refers to P<0.05,** refers to P<0.01, *** refers to P<0.005, and **** refers to P<0.0005.

Where [3] appears, read: after three oral doses (first 10 or 50 mg/kg, then two doses of 50 mg/kg) (title).

Take `CCOC(=O)[C@@H]1CC2(CCN(c3cc(O[C@H](c4ccc(Cl)cc4-n4ccc(C)n4)C(F)(F)F)nc(N)n3)CC2)CN1` [Example 63az, (S)-ethyl 8-(2-amino-6-((R)-1-(4-chloro-2-(3-methyl-1H-pyrazol-1-yl)phenyl)-2,2,2-trifluoroethoxy)pyrimidin-4-yl)-2,8-diazaspiro[4.5]decane-3-carboxylate]: the “Efficacy (statistical significance of reduction of mucosal 5-HT concentrations relative to vehicle)” value in assay [1] and in assay [2] (setting [3]) was “*** (*** refers to P<0.005)” each time.
`CCOC(=O)[C@@H]1CC2(CCN(c3cc(O[C@H](c4ccc(-c5ccc(C)c(C)c5)cc4-n4ccc(C)n4)C(F)(F)F)nc(N)n3)CC2)CN1` [Example 63bd, (S)-ethyl 8-(2-amino-6-((R)-1-(3′,4′-dimethyl-3-(3-methyl-1H-pyrazol-1-yl)-[1,1′-biphenyl]-4-yl)-2,2,2-trifluoroethoxy)pyrimidin-4-yl)-2,8-diazaspiro[4.5]decane-3-carboxylate]: the “Efficacy (statistical significance of reduction of mucosal 5-HT concentrations relative to vehicle)” value in assay [1] and in assay [2] (setting [3]) was “*** (*** refers to P<0.005)” throughout.
For the compound `CCCc1ccc([C@@H](Oc2cc(N3CCC4(CC3)CN[C@H](C(=O)OCC)C4)nc(N)n2)C(F)(F)F)c(-n2ccc(C)n2)c1` [Example 63bf, (S)-ethyl 8-(2-amino-6-((R)-2,2,2-trifluoro-1-(2-(3-methyl-1H-pyrazol-1-yl)-4-propylphenyl)ethoxy)pyrimidin-4-yl)-2,8-diazaspiro[4.5]decane-3-carboxylate], the results for the “Efficacy (statistical significance of reduction of mucosal 5-HT concentrations relative to vehicle)” value in assay [1] and in assay [2] (setting [3]) were “**** (and refers to P<0.0005)” and “*** (*** refers to P<0.005)”, respectively.
Taken in the same sequence, the figures for `CCCCc1ccc([C@@H](Oc2cc(N3CCC4(CC3)CN[C@H](C(=O)OCC)C4)nc(N)n2)C(F)(F)F)c(-n2ccc(C)n2)c1` [Example 63bg, (S)-ethyl 8-(2-amino-6-((R)-1-(4-butyl-2-(3-methyl-1H-pyrazol-1-yl)phenyl)-2,2,2-trifluoroethoxy)pyrimidin-4-yl)-2,8-diazaspiro[4.5]decane-3-carboxylate] were “**** (and refers to P<0.0005)” and “*** (*** refers to P<0.005)”.
For the compound `CCOC(=O)[C@@H]1CC2(CCN(c3cc(O[C@H](c4cc(-c5ccc(C)c(C)c5)ccc4-n4ccc(C)n4)C(F)(F)F)nc(N)n3)CC2)CN1` [Example 63bn, (S)-ethyl 8-(2-amino-6-((R)-1-(3′,4′-dimethyl-4-(3-methyl-1H-pyrazol-1-yl)-[1,1′-biphenyl]-3-yl)-2,2,2-trifluoroethoxy)pyrimidin-4-yl)-2,8-diazaspiro[4.5]decane-3-carboxylate], the figures for the “Efficacy (statistical significance of reduction of mucosal 5-HT concentrations relative to vehicle)” value in assay [1] and in assay [2] (setting [3]) were “**** (and refers to P<0.0005)” and “**** (**** refers to P<0.0005)”, respectively.
In the case of `CCCc1ccc(-n2ccc(C)n2)c([C@@H](Oc2cc(N3CCC4(CC3)CN[C@H](C(=O)OCC)C4)nc(N)n2)C(F)(F)F)c1` [Example 63bo, (S)-ethyl 8-(2-amino-6-((R)-2,2,2-trifluoro-1-(2-(3-methyl-1H-pyrazol-1-yl)-5-propylphenyl)ethoxy)pyrimidin-4-yl)-2,8-diazaspiro[4.5]decane-3-carboxylate], the “Efficacy (statistical significance of reduction of mucosal 5-HT concentrations relative to vehicle)” value is “**** (and refers to P<0.0005)” in assay [1] and “*** (*** refers to P<0.005)” in assay [2] (setting [3]).
For `CCOC(=O)[C@@H]1CC2(CCN(c3cc(O[C@H](c4cc(CC)ccc4-n4ccc(C)n4)C(F)(F)F)nc(N)n3)CC2)CN1` [Example 63bp, (S)-ethyl 8-(2-amino-6-((R)-1-(5-ethyl-2-(3-methyl-1H-pyrazol-1-yl)phenyl)-2,2,2-trifluoroethoxy)pyrimidin-4-yl)-2,8-diazaspiro[4.5]decane-3-carboxylate], the results for the “Efficacy (statistical significance of reduction of mucosal 5-HT concentrations relative to vehicle)” value in assay [1] and in assay [2] (setting [3]) were “**** (and refers to P<0.0005)” and “*** (*** refers to P<0.005)”, respectively.
As to `CCOC(=O)[C@@H]1CC2(CCN(c3cc(O[C@H](c4ccc(Cl)cc4-c4cccc(S(N)(=O)=O)c4)C(F)(F)F)nc(N)n3)CC2)CN1` [Example 63ch, (S)-ethyl 8-(2-amino-6-((R)-1-(5-chloro-3′-sulfamoyl-[1,1′-biphenyl]-2-yl)-2,2,2-trifluoroethoxy)pyrimidin-4-yl)-2,8-diazaspiro[4.5]decane-3-carboxylate], the “Efficacy (statistical significance of reduction of mucosal 5-HT concentrations relative to vehicle)” value in assay [1] and in assay [2] (setting [3]) was “*** (*** refers to P<0.005)” in each case.
As for `CCOC(=O)[C@@H]1CC2(CCN(c3cc(O[C@H](c4ccc(Cl)cc4-c4cccc(S(C)(=O)=O)c4)C(F)(F)F)nc(N)n3)CC2)CN1` [Example 63cj, (S)-ethyl 8-(2-amino-6-((R)-1-(5-chloro-3′-(methylsulfonyl)-[1,1′-biphenyl]-2-yl)-2,2,2-trifluoroethoxy)pyrimidin-4-yl)-2,8-diazaspiro[4.5]decane-3-carboxylate], the “Efficacy (statistical significance of reduction of mucosal 5-HT concentrations relative to vehicle)” value in assay [1] is “*** (*** refers to P<0.005)”; in assay [2] (setting [3]), “** (** refers to P<0.01)”.
In the case of `CCOC(=O)[C@@H]1CC2(CCN(c3cc(O[C@H](c4ccc(-c5ccc6ncccc6c5)cc4)C(F)(F)F)nc(N)n3)CC2)CN1` [Example 63cl, (S)-ethyl 8-(2-amino-6-((R)-2,2,2-trifluoro-1-(4-(quinolin-6-yl)phenyl)ethoxy)pyrimidin-4-yl)-2,8-diazaspiro[4.5]decane-3-carboxylate], the “Efficacy (statistical significance of reduction of mucosal 5-HT concentrations relative to vehicle)” value in assay [1] and in assay [2] ((title)) was “*** (*** refers to P<0.005)” each time.
For the compound `CCOC(=O)c1ccc(-c2ccc(-n3ccc(C)n3)c([C@@H](Oc3cc(N4CCC5(CC4)CN[C@H](C(=O)OCC)C5)nc(N)n3)C(F)(F)F)c2)cc1` [Example 63dc, (S)-ethyl 8-(2-amino-6-((R)-1-(4′-(ethoxycarbonyl)-4-(3-methyl-1H-pyrazol-1-yl)-[1,1′-biphenyl]-3-yl)-2,2,2-trifluoroethoxy)pyrimidin-4-yl)-2,8-diazaspiro[4.5]decane-3-carboxylate], the “Efficacy (statistical significance of reduction of mucosal 5-HT concentrations relative to vehicle)” value in assay [1] and in assay [2] (setting [3]) was “*** (*** refers to P<0.005)” each time.
Take `CCOC(=O)[C@@H]1CC2(CCN(c3cc(O[C@H](c4ccc(Cl)cc4-c4ccccc4)C(F)(F)F)nc(N)n3)CC2)CN1` [Example 63i, (S)-ethyl 8-(2-amino-6-((R)-1-(5-chloro-[1,1′-biphenyl]-2-yl)-2,2,2-trifluoroethoxy)pyrimidin-4-yl)-2,8-diazaspiro[4.5]decane-3-carboxylate]: in assay [2] (setting [3]), the “Efficacy (statistical significance of reduction of mucosal 5-HT concentrations relative to vehicle)” value was “*** (*** refers to P<0.005)”.
On the same count and under the same terms, with `CC(C)OC(=O)[C@@H]1CC2(CCN(c3cc(O[C@H](c4ccc(Cl)cc4-c4ccccc4)C(F)(F)F)nc(N)n3)CC2)CN1` [Example 69a, (S)-isopropyl 8-(2-amino-6-((R)-1-(5-chloro-[1,1′-biphenyl]-2-yl)-2,2,2-trifluoroethoxy)pyrimidin-4-yl)-2,8-diazaspiro[4.5]decane-3-carboxylate] the entry was “*** (*** refers to P<0.005)”; with `CCCOC(=O)[C@@H]1CC2(CCN(c3cc(O[C@H](c4ccc(Cl)cc4-c4ccccc4)C(F)(F)F)nc(N)n3)CC2)CN1` [Example 69c, (S)-propyl 8-(2-amino-6-((R)-1-(5-chloro-[1,1′-biphenyl]-2-yl)-2,2,2-trifluoroethoxy)pyrimidin-4-yl)-2,8-diazaspiro[4.5]decane-3-carboxylate], “*** (*** refers to P<0.005)”.
On to “(S)-cyclopentyl 8-(2-amino-6-((R)-1-(4′-chloro-3-(3- methyl-1H-pyrazol-1-yl)-[1,1′-biphenyl]-4-yl)-2,2,2- trifluoroethoxy)pyrimidin-4-yl)-2,8- diazaspiro[4.5]decane-3-carboxylate [Example 69b]”, for which, in assay [2] ((title)), the “Efficacy (statistical significance of reduction of mucosal 5-HT concentrations relative to vehicle)” value is given as “*** (*** refers to P<0.005)”.
